Tests used:
μ-opioid receptor [1] = target: T1, μ-opioid receptor (Homo sapiens (Human), UniProt P35372); test: μ-opioid receptor [35S]GTPγS functional assay, HEK-293 or CHO cells; format: biochemical; settings: for Emax: HEK-293 or CHO cells, relative to DAMGO
Experimental: (§1) μ-Opioid Receptor Functional Assay Procedures: [^35S]GTPγS functional assays were conducted using freshly thawed μ-receptor membranes prepared in-house from a cell line expressing recombinant μ opioid receptor in a HEK-293, CHO, or U-2 OS cell background or purchased from a commercial source (Perkin Elmer, Shelton, Conn.). Assay reactions were prepared by sequentially adding the following reagents to binding buffer (100 mM NaCl, 10 mM MgCl2, 20 mM HEPES, pH 7.4) on ice (final concentrations indicated): membrane protein (0.026 mg/mL), saponin ([…]), GDP ([…]) and [^35S]GTPγS (0.20 nM; Perkin Elmer, Shelton, Conn.). The prepared membrane solution (190 μl/well) was transferred to 96-shallow well polypropylene plates containing 10 μl of 20× concentrated stock solutions of the agonist [D-Ala^2, N-methyl-Phe^4 Gly-ol^5]-enkephalin (DAMGO) prepared in dimethyl sulfoxide (DMSO). Plates were incubated for 30 min at about 25° C. with shaking. […] Data were analyzed using the sigmoidal dose-response curve fitting functions in GraphPad PRISM v. 3.0, or an in-house function for non-linear, sigmoidal dose-response curve-fitting. [^35S]GTPγS functional assays can also be conducted using freshly thawed μ-receptor membranes prepared from a cell line expressing recombinant opioid receptor in a CHO-K1 cell background.
(§2) μ-Opioid Receptor Functional Data: μ GTP EC50 is the concentration of a compound providing 50% of the maximal response for the compound at a μ-opioid receptor.
(§3) μ GTP Emax (%) is the maximal effect elicited by a compound relative to the effect elicited by DAMGO, a standard μ agonist. Generally, the μ GTP Emax (%) value measures the efficacy of a compound to treat or prevent pain or other Conditions.

[2] = target: recombinant human kappa opioid receptor (κ) (Homo sapiens (Human), UniProt P41145); test: κ-opioid receptor radioligand dose-displacement binding assay ([3H]-U69,593)
Experimental: κ-Opioid Receptor Binding Assay Procedures: Membranes from HEK-293 cells, CHO cells, or U-2 OS cells expressing the recombinant human kappa opioid receptor (κ) were prepared by lysing cells in ice cold hypotonic buffer (2.5 mM MgCl2, 50 mM HEPES, pH 7.4) (10 mL/10 cm dish) followed by homogenization with a tissue grinder/Teflon pestle. Membranes from a cell line naturally expressing kappa opioid receptor can also be used. Membranes were collected by centrifugation at 30,000×g for 15 min at 4° C. and pellets were resuspended in hypotonic buffer to a final concentration of 1-3 mg/mL. Protein concentrations were determined using the BioRad protein assay reagent with bovine serum albumen as standard. Aliquots of κ receptor membranes were stored at −80° C.
Radioligand dose displacement assays used 0.4 nM [^3H]-U69,593 (GE Healthcare, Piscataway, N.J.; 40 Ci/mmole) with 15 μg membrane protein (recombinant κ opioid receptor expressed in HEK 293 cells; in-house prep) in a final volume of 200 μl binding buffer (5% DMSO, 50 mM Trizma base, pH 7.4). Non-specific binding was determined in the presence of 10 μM unlabeled naloxone or U69,593. All reactions were performed in 96-well polypropylene plates for 1 hour at a temperature of about 25° C.

κ opioid receptor [3] = target: T2, κ opioid receptor (Homo sapiens (Human), UniProt P41145); test: κ-opioid receptor [35S]GTPγS functional assay, HEK-293 or CHO cells; format: biochemical; settings: for Emax: HEK-293 or CHO cells, relative to U69,593
Experimental: (§4) κ-Opioid Receptor Functional Assay Procedures: Functional [^35S]GTPγS binding assays were conducted as follows. κ opioid receptor membrane solution was prepared by sequentially adding final concentrations of 0.026 μg/μl κ membrane protein (in-house), 10 μg/mL saponin, 3 μM GDP and 0.20 nM [^35S]GTPγS to binding buffer (100 mM NaCl, 10 mM MgCl2, 20 mM HEPES, pH 7.4) on ice. The prepared membrane solution (190 μl/well) was transferred to 96-shallow well polypropylene plates containing 10 μl of 20× concentrated stock solutions of agonist prepared in DMSO. Plates were incubated for 30 min at a temperature of about 25° C. with shaking.
(§5) κ-Opioid Receptor Functional Data: κ GTP EC50 is the concentration of a compound providing 50% of the maximal response for the compound at a κ receptor.
(§6) κ GTP Emax (%) is the maximal effect elicited by a compound relative to the effect elicited by U69,593.

κ opioid receptor [4] = target: T2, κ opioid receptor; test: κ-opioid receptor [35S]GTPγS functional assay, U-2 OS cells; format: biochemical; settings: for Emax: U-2 OS cells, relative to U69,593
Experimental: as §4, §5, §6

μ-opioid receptor [5] = target: T1, μ-opioid receptor; test: μ-opioid receptor [35S]GTPγS functional assay, U-2 OS cells; format: biochemical; settings: for Emax: U-2 OS cells, relative to DAMGO
Experimental: as §1, §2, §3

μ-opioid receptor [6] = target: T1, μ-opioid receptor; test: μ-opioid receptor radioligand dose-displacement binding assay ([3H]-diprenorphine)
Experimental: Radioligand dose-displacement binding assays for μ-opioid receptors used 0.3 nM [^3H]-diprenorphine (Perkin Elmer, Shelton, Conn.), with 5 mg membrane protein/well in a final volume of 500 μl binding buffer (10 mM MgCl2, 1 mM EDTA, 5% DMSO, 50 mM HEPES, pH 7.4). Reactions were carried out in the absence or presence of increasing concentrations of unlabeled naloxone. All reactions were conducted in 96-deep well polypropylene plates for 2 hours at room temperature. Binding reactions were terminated by rapid filtration onto 96-well Unifilter GF/C filter plates (Perkin Elmer, Shelton, Conn.), presoaked in 0.5% polyethylenimine using a 96-well tissue harvester (Perkin Elmer, Shelton, Conn.) followed by performing three filtration washes with 500 μl of ice-cold binding buffer. Filter plates were subsequently dried at 50° C. for 2-3 hours. BetaScint scintillation cocktail (Perkin Elmer, Shelton, Conn.) was added (50 μl/well), and plates were counted using a Packard Top-Count for 1 min/well. The data were analyzed using the one-site competition curve fitting functions in GraphPad PRISM™ v.

Compound | EC50 (μ-opioid receptor [1]) [nM] | Emax (μ-opioid receptor [1]) [%] | Ki [2] [nM] | EC50 (κ opioid receptor [3]) [nM] | Emax (κ opioid receptor [3]) [%] | EC50 (κ opioid receptor [4]) [nM] | Emax (κ opioid receptor [4]) [%] | EC50 (μ-opioid receptor [5]) [nM] | Emax (μ-opioid receptor [5]) [%] | Ki (μ-opioid receptor [6]) [nM]
CN1CC[C@]23Cc4[nH]c(=O)c(S(C)(=O)=O)cc4C[C@H]2[C@H]1Cc1ccc(O)cc13 [Compound 11, (6R,6aR,12aS)-2-hydroxy-15-methyl-9-(methylsulfonyl)-6,6a,7,12-tetrahydro-5H-6,12a-(epiminoethano)naphtho[2,1-g]quinolin-10(11H)-one] | 259 ± 53.5 | 20.7 ± 1.76 | 13.1 ± 2.27 | 107 ± 28.7 | 16.7 ± 1.21 | – | – | – | – | –
CS(=O)(=O)c1cc2c([nH]c1=O)C[C@]13CCN(CC4CC4)[C@H](Cc4ccc(O)cc41)[C@@H]3C2 [Compound 9, (6R,6aR,12aS)-15-(cyclopropylmethyl)-2-hydroxy-9-(methylsulfonyl)-6a,7,11,12-tetrahydro-5H-6,12a-(epiminoethano)naphtho[2,1-g]quinolin-10(6H)-one] | > 20000 | 2.5 | – | – | – | – | – | – | – | –
CN1CC[C@]23Cc4[nH]c(=O)c(S(=O)(=O)c5ccccc5)cc4C[C@@]2(O)[C@H]1Cc1ccc(O)cc13 [Compound 8, (6R,6aS,12aR)-2,6a-dihydroxy-15-methyl-9-(phenylsulfonyl)-6a,7,11,12-tetrahydro-5H-6,12a-(epiminoethano)naphtho[2,1-g]quinolin-10(6H)-one] | – | – | 19.5 ± 2.69 | – | – | 35.8 ± 3.77 | 82.3 ± 3.67 | 77.5 ± 10.9 | 61.7 ± 1.67 | –
CS(=O)(=O)c1cc2c([nH]c1=O)C[C@]13CCN(CC4CC4)[C@H](Cc4ccc(O)cc41)[C@]3(O)C2 [Compound 5, (6R,6aS,12aR)-15-(cyclopropylmethyl)-2,6a-dihydroxy-9-(methylsulfonyl)-6a,7,11,12-tetrahydro-5H-6,12a-(epiminoethano)naphtho[2,1-g]quinolin-10(6H)-one] | > 20000 | 1 | 0.36 ± 0.091 | 1.27 ± 0.3 | 10.3 ± 0.67 | 0.85 ± 0.075 | 55.7 ± 2.4 | > 20000 | 2 | 0.76 ± 0.13
CN1CC[C@]23Cc4[nH]c(=O)c(S(=O)(=O)c5ccccc5)cc4C[C@H]2[C@H]1Cc1ccc(O)cc13 [Compound 12, (6R,6aR,12aS)-2-hydroxy-15-methyl-9-(phenylsulfonyl)-6,6a,7,12-tetrahydro-5H-6,12a-(epiminoethano)naphtho[2,1-g]quinolin-10(11H)-one] | 83.1 ± 24.1 | 19.8 ± 2.63 | 2.78 ± 0.75 | 17.2 ± 4.22 | 17.2 ± 1.04 | – | – | – | – | –
CN1CC[C@]23Cc4[nH]c(=O)c(S(C)(=O)=O)cc4C[C@@]2(O)[C@H]1Cc1ccc(O)cc13 [Compound 7, (6R,6aS,12aR)-2,6a-dihydroxy-15-methyl-9-(methylsulfonyl)-6a,7,11,12-tetrahydro-5H-6,12a-(epiminoethano)naphtho[2,1-g]quinolin-10(6H)-one] | – | – | – | – | – | 203 ± 47.7 | 71.3 ± 3.33 | 148 ± 6.21 | 68 ± 1.15 | –
O=c1[nH]c2c(cc1S(=O)(=O)c1ccccc1)C[C@H]1[C@H]3Cc4ccc(O)cc4[C@@]1(CCN3CC1CC1)C2 [Compound 10, (6R,6aR,12aS)-15-(cyclopropylmethyl)-2-hydroxy-9-(phenylsulfonyl)-6a,7,11,12-tetrahydro-5H-6,12a-(epiminoethano)naphtho[2,1-g]quinolin-10(6H)-one] | > 20000 | 2 | – | – | – | – | – | – | – | –
O=c1[nH]c2c(cc1S(=O)(=O)c1ccccc1)C[C@@]1(O)[C@H]3Cc4ccc(O)cc4[C@@]1(CCN3CC1CC1)C2 [Compound 6, (6R,6aS,12aR)-15-(cyclopropylmethyl)-2,6a-dihydroxy-9-(phenylsulfonyl)-6a,7,11,12-tetrahydro-5H-6,12a-(epiminoethano)naphtho[2,1-g]quinolin-10(6H)-one] | – | – | – | – | – | 0.26 ± 0.055 | 33.2 ± 2.84 | > 20000 | 2 | –
